From US9295732B2, “Conjugated TLR7 and/or TLR8 and TLR2 polycationic agonists” (CAYLA, priority 2013, dated 2016)
“And” between values parts separate entries of the source, which are not always exact repeats. Equal values may be shown once.

Key:
plasmid DNA (pDNA) = assay: Gel shift (mobility shift) assay of pDNA complexation; format: binding; details: pDNA:molecule ratio 3:24 (w:w), 0.8% agarose gel, compared to pDNA alone
In short: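 Complexes of pDNA with TLR7-TLR2 polyamine molecules run on 0.8% agarose in TAE at 135 V for 21 min, ethidium bromide stained and viewed under UV. Complexation scored as partial or complete retardation of pDNA migration versus pDNA alone, complexed pDNA appearing as a smear in wells.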

[1] = test system: ISG54 promoter activity in RAW-ISG54 reporter cells; assay: IFN response assay, RAW-ISG54 luciferase reporter cells; format: cell-based, mouse; details: in complexes with pDNA 3:24 (w:w), overnight, FIG. 6A
Description: The effect of the pDNA:TLR7-TLR2 polyamine molecules complexes on inducing an interferon response was examined. pDNA:TLR7-TLR2 polyamine molecules mixtures (pDNA:TLR7-TLR2 polyamine molecules ratio 3:24, w:w) in serum-free medium or 5% glucose were prepared as described above and added to IFN reporter cells. Luciferase reporter cell lines were used to assay interferon response. A plasmid containing an interferon-inducible luciferase reporter gene was introduced into mouse RAW 264.7 macrophages and mouse B16 melanoma cells, giving rise to the RAW-ISG54 and B16-ISG54 reporter cell lines respectively. Expression of the luciferase reporter gene by the plasmid is under the control of an interferon-inducible promoter (I-ISG54) comprising five interferon-stimulated response elements (ISRE) and the minimal promoter of the human ISG-54K (Interferon Stimulation of a Gene encoding a 54 kDa protein) gene. The ISG-54K gene is induced by interferon regulatory factor 3 (IRF3), which has a key involvement in […] responses (Grandvaux et al. 2002) and the minimal promoter of the human ISG-54K gene contains two ISRE sites and fully inducible by type I interferons (IFN-α and IFN-β) and interferon regulatory factors (IRFs) (Wathelet et al. 1988; Grandvaux et al. 2002).
The RAW-ISG54 and B16-ISG54 reporter cell lines were seeded onto 96 well microtiter plates at 100,000 cells per well and 75,000 cells per well respectively. Cells were cultured in DMEM supplemented with 10% (v/v) heat inactivated fetal bovine serum (30 min at 56° C.), 4.5 g/I glucose, 2 mM L-glutamine, 50 U/ml penicillin, 50 μg/ml streptomycin, 100 μg/ml Normocin™ (InvivoGen) together with pDNA:TLR7-TLR2 polyamine complexes at 37° C. overnight. pDNA:TLR7-TLR2 polyamine molecules complexes were prepared as described above prior to adding to the IFN reporter cells. The induced luciferase expression was assessed in the reporter cell lines using a coelenterazine-base luminescence assay reagent, the Quanti-Luc™ (InvivoGen). Secreted luciferase activity was determined by bioluminescence quantification of the cell culture media using a microplate luminometer (FLUOstar OPTIMA from BMG Labtech).

human TLR2 = molecular target: T1, human TLR2 (Homo sapiens, UniProt O60603); assay: HEK-Blue hTLR2 NF-κB/AP-1 SEAP reporter assay; format: cell-based; details: HEK-Blue hTLR2 cells, 10 μg/mL to 10 pg/ml, 24 hours, OD at 655 nm, FIG. 3
T1 construct: host or cells: HEK293 (HEK-Blue™ hTLR2)
In short: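 HEK293 cells stably expressing the given TLR, or RAW 264.7-derived cells (50,000 or 100,000 cells/well respectively), carry an NF-κB/AP-1-inducible SEAP reporter. Conjugated TLR7-TLR2 agonists at final 10 μg/mL to 10 pg/ml, 24 h at 37° C. SEAP read colorimetrically as OD at 655 nm in detection medium.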

B16-F1 cells = assay: Cell transfection with SEAP plasmid, B16-F1; format: cell-based, mouse; details: in complex with pVitro14 LGFP SEAP plasmid, 48 hours, SEAP expression; FIG. 5B
Description: The TLR7-TLR2 molecules were tested for their ability as polyamine molecules to transport plasmid DNA (pDNA) into cells. The pVitro14 LGFP SEAP plasmid (InvivoGen) was complexed to TLR7-TLR2 polyamine molecules and to the control cationic lipid transfection agent, LyoVec™ (InvivoGen). The human HEK293 (ATCC, CRL-1573) and mouse B16-F1 melanoma (ATCC, CRL-6323) cell lines were seeded at a density of 50 000 cells/well and 20 000 cells/well respectively, in the absence or presence of different volumes of the plasmid encoding for the SEAP protein in complex with TLR7-TLR2 polyamine molecules for 48 hours at 37° C. and 10% CO2. Transfection efficiency was assessed by measuring SEAP reporter gene expression: 20 μl of supernatant was sampled and mixed with 180 μl of QUANTI-Blue™ Detection (InvivoGen). In the presence of alkaline phosphatase SEAP, the color of QUANTI-Blue™ changes from pink to purple/blue. The intensity of the blue hue reflects the activity of SEAP. The levels of SEAP secretion were determined quantitatively by reading the OD at 620-655 nm using a spectrophotometer, iMark™ Microplate Reader (BIO-RAD).

[2] = Nanoparticle (lipoplex) size by dynamic light scattering; details: 25° C., triplicate; for Mean Diameter: complexes with pDNA 3:24 (w:w), dynamic light scattering; for PDI: polydispersity index of complexes with pDNA 3:24 (w:w);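 as to all read-outs here: lipoplexes of TLR7-TLR2 polyamine conjugates with plasmid DNA, formed over 30 min at room temperature in serum-free medium or 5% glucose, diameter in nm, PDI dimensionless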

T1 sequence (O60603 21-784): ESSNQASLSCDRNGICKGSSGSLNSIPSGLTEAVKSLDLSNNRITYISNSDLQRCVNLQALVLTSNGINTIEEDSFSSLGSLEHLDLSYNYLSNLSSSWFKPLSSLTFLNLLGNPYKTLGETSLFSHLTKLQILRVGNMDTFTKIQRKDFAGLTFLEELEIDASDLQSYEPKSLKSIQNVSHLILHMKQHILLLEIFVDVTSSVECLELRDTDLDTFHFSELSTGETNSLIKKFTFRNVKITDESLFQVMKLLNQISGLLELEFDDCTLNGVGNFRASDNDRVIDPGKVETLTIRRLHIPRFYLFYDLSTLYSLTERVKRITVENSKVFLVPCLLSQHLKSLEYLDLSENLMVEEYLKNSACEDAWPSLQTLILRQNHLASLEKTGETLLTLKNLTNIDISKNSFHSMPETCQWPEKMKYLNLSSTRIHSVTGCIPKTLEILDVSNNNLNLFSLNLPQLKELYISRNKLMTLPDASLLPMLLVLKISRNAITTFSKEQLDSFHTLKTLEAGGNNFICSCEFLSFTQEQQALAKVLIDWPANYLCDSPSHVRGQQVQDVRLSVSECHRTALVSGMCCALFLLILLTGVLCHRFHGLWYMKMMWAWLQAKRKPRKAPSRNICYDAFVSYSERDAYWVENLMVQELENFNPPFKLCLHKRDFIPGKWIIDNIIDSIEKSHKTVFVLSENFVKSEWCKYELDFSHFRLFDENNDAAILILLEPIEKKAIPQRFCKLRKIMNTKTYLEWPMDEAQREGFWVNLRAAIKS

With CCCCCCCCCCCCCCCC(=O)OCC(CSC[C@H](N)C(=O)N[C@@H](CCC(=O)NCCCNCCCCNCCCN)C(=O)Nc1ccc(Cn2c(O)nc3c(N)nc(NCCCC)nc32)cc1)OC(=O)CCCCCCCCCCCCCCC (stereo partly drawn) [CL527, (6R,9S)-6,25-diamino-9-(4-((6-amino-2-(butylamino)-8-hydroxy-9H-purin-9-yl)methyl)phenylcarbamoyl)-7,12-dioxo-4-thia-8,13,17,22-tetraazapentacosane-1,2-diyl dipalmitate] the “ability to complex pDNA (retardation of pDNA migration in agarose gel)” value (“ability to complex pDNA” below) (plasmid DNA (pDNA)) was “inability to migrate through an agarose gel”, the “ability to induce an IFN response in RAW-ISG54 reporter cells” value (“ability to induce an IFN response” for short) [1] was “induce an IFN response in RAW-ISG54 reporter cells” and the “ability to activate hTLR2” value (human TLR2) was “activate hTLR2”. The “ability to transfect B16-F1 cells” value (B16-F1 cells) was “transfect B16-F1 cells”, the “Mean Diameter” value [2] was 175.1 nm and 156.9 nm and 168.3 nm and the PDI [2] was 0.253 and 0.239 and 0.258.
For CCCCCCCCCCCCCCCC(=O)OCC(CSC[C@H](N)C(=O)NCCCNCCCCNCCCNC(=O)CNC(=O)c1ccc(Cn2c(O)nc3c(N)nc(NCCCC)nc32)cc1)OC(=O)CCCCCCCCCCCCCCC (stereo partly drawn) [CL553, (20R)-20-amino-1-(4-((6-amino-2-(butylamino)-8-hydroxy-9H-purin-9-yl)methyl)phenyl)-1,4,19-trioxo-22-thia-2,5,9,14,18-pentaazapentacosane-24,25-diyl dipalmitate], the “ability to complex pDNA” value (plasmid DNA (pDNA)) was “inability to migrate through an agarose gel”, the “ability to induce an IFN response” value [1] was “induce an IFN response in RAW-ISG54 reporter cells” and the “ability to activate hTLR2” value (human TLR2) was “activate hTLR2”. For the same compound, the “ability to transfect B16-F1 cells” value (B16-F1 cells) was “transfect B16-F1 cells”, the “Mean Diameter” value [2] was 170.0 nm and 190.0 nm and 180.2 nm and the PDI [2] was 0.226 and 0.230 and 0.237.
In the case of CCCCCCCCCCCCCCCC(=O)OCC(CSC[C@H](N)C(=O)N[C@@H](COC(=O)c1ccc(Cn2c(O)nc3c(N)nc(NCCCC)nc32)cc1)C(=O)NCCCNCCCCNCCCN)OC(=O)CCCCCCCCCCCCCCC (stereo partly drawn) [CL514, (6R,9S)-6,23-diamino-9-((4-((6-amino-2-(butylamino)-8-hydroxy-9H-purin-9-yl)methyl)benzoyloxy)methyl)-7,10-dioxo-4-thia-8,11,15,20-tetraazatricosane-1,2-diyl dipalmitate], the “ability to complex pDNA” value (plasmid DNA (pDNA)) is reported as “inability to migrate through an agarose gel”, the “ability to induce an IFN response” value [1] is reported as “induce an IFN response in RAW-ISG54 reporter cells” and the “ability to activate hTLR2” value (human TLR2) is reported as “activate hTLR2”. The “ability to transfect B16-F1 cells” value (B16-F1 cells) was “transfect B16-F1 cells”, the “Mean Diameter” value [2] was 249.1 nm and 309.6 nm and 258.3 nm and the PDI [2] was 0.303 and 0.354 and 0.372.
In the case of “(6S,9S,12S,15S,18S,21R)-6,25-diamino-21-(4-((6-amino-2-(butylamino)-8-hydroxy-9H-purin-9-yl)methyl)phenylcarbamoyl)-12,15,18-tris(4-aminobutyl)-9-(hydroxyl methyl)-7,10,13,16,19-pentaoxo-4-thia-8,11,14,17,20-pentaazapentacosane-1,2-diyl dipalmitate [CL413]”, the “ability to complex pDNA” value (plasmid DNA (pDNA)) is reported as “inability to migrate through an agarose gel”, the “ability to induce an IFN response” value [1] is reported as “induce an IFN response in RAW-ISG54 reporter cells” and the “ability to activate hTLR2” value (human TLR2) is reported as “activate hTLR2”. The “ability to transfect B16-F1 cells” value (B16-F1 cells) was “lack the ability to transfect cells”.
In the case of CCCCCCCCCCCCCCCC(=O)N[C@@H](CSCC(COC(=O)CCCCCCCCCCCCCCC)OC(=O)CCCCCCCCCCCCCCC)C(=O)N[C@@H](CO)C(=O)N[C@@H](CCCCN)C(=O)N[C@@H](CCCCN)C(=O)N[C@@H](CCCCN)C(=O)N[C@@H](CCCCN)C(=O)Nc1ccc(Cn2c(O)nc3c(N)nc(NCCCC)nc32)cc1 (stereo partly drawn) [CL534, ((6R,9S,12S,15S,18S,21S)-25-amino-21-(4-((6-amino-2-(butylamino)-8-hydroxy-9H-purin-9-yl)methyl)phenylcarbamoyl)-12,15,18-tris(4-aminobutyl)-9-(hydroxylmethyl)-7,10,13,16,19-pentaoxo-6-palmitamido-4-thia-8,11,14,17,20-pentaazapentacosane-1,2-diyl dipalmitate], the “ability to complex pDNA” value (plasmid DNA (pDNA)) is reported as “inability to migrate through an agarose gel”, the “ability to activate hTLR2” value (human TLR2) is reported as “activate hTLR2” and the “ability to transfect B16-F1 cells” value (B16-F1 cells) is reported as “lack the ability to transfect cells”.
